Laboratory results from patent US4371537A, “Sulfur-substituted phenoxypyridines having antiviral activity” (The Dow Chemical Company, priority 1981, dated 1983).
Converted amounts (≈) assume the structure as drawn.

Legend:
[1] = Cytotoxicity in tissue culture testing (HeLa monolayers); format: cell-based; conditions: human; HeLa cells; observed at 48 and 72 hours post-treatment; read-out: Cytotoxicity: concentration of the compound found to be toxic to the cell
Method in brief: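 HeLa monolayers treated with compound in Eagle's medium with fetal calf serum, then challenged with rhinovirus (RV-1A, RV-2, some RV-5, RV-8, RV-64) or Coxsackie A21. Untreated and virus-free cell controls included.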

[2] = system: Coxsackie A21 virus (Cox A21); experiment: Tissue culture testing, Coxsackie A21 virus in HeLa cells; format: cell-based; conditions: 48 and 72 hours, NA = not active at the standard test conditions, read-out: Cox A21: lowest concentration of the compound necessary to cause a 50 percent reduction in cytopathic effect
Method in brief: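 Monolayer HeLa cells were pretreated with compound in Eagle's medium with fetal calf serum, then challenged with virus in medium. Untreated and uninfected controls were run. Values are the lowest compound concentration (μg/ml) needed for the scored effect.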

[3] = system: rhinovirus type 64 (RV-64); experiment: Tissue culture testing, rhinovirus type 64 in HeLa cells; format: cell-based; conditions: Enterovirus, 48 and 72 hours, NA = not active at the standard test conditions, read-out: RV-64: lowest concentration of the compound necessary to cause a 50 percent reduction in cytopathic effect
Method: (§1) Monolayered HeLa cells in 16 millimeter (mm) tissue culture dishes were treated with 1 ml of culture medium (Eagles medium supplemented with fetal calf serum) containing subject compound at an appropriate concentration or containing no compound at all. Culture media such as those described herein are more fully described in standard texts, as for example, Kuchler's Biochemical Methods in Cell Culture and Virology, Dowden, Hutchinson and Ross, Inc., Stroudsberg, PA (1977). Following treatment, cells were challenged with 0.05 ml of rhinovirus type 1A (RV-1A), rhinovirus type 2 (RV-2) or Coxsackie A21 virus (Cox A21) in culture medium. Some of the compounds were also tested against rhinovirus type 5 (RV-5), rhinovirus type 8 (RV-8) or rhinovirus type 64 (RV-64). Cell controls received no viruses.
(§2) ^2 Lowest concentration of the compound (μg/ml) necessary to cause

[4] = system: Cox A21; experiment: Single Oral Dose test in mice challenged IP with Cox A21; format: in vivo, Swiss male mice; conditions: 600 mg/kg P.O. 3 h after IP challenge; >3.84 significant (95% confidence level)
Method in brief: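 Swiss male mice (8-12 g) infected IP with a lethal Cox A21 dose (80-100% mortality within 10 days), then given a single oral dose of compound in 0.5% Methocel 3 h later. Deaths recorded daily for 7-10 days; modified Mantel-Haenzel chi-square versus virus controls, >3.84 significant.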

[5] = system: Rhinovirus Type 6; experiment: Inhibition of cytopathic effect in WI-38 cell culture tubes, rhinovirus type 6; format: cell-based; conditions: Enterovirus, WI-38 cells, read-out: Inhibition grade, Rhinovirus Type 6; for inhibition at 25 µg/mL: 25 μg/ml
Method: (§3) The test compound was dissolved in an appropriate solvent (generally dimethyl sulfoxide) and incubated at 56° C. for at least 15 minutes and this solution was then used to prepare various test solutions having the desired concentration of test compound in preheated WI maintenance medium (49% Eagles, 49% medium 199, 2% fetal calf serum and antibiotics).
(§4) Triplicate cell culture tubes (WI-38 human embryonic lung cell culture tubes) were fed with 1 ml of medium containing the compound at specified concentrations and inoculated with 3-300 TCID50 (3-300 times the tissue culture infective dose 50, i.e., the dose required to infect 50% of the cell cultures tested). Simultaneous viral titrations were performed. The tissue cultures were supplemented with fresh medium when necessary (around 3-4 days) until viral titrations were completed.
(§5) The cell culture tubes were examined dialy for cytopathic effect. […] Comparisons were made at that time with the percentage of cell sheet destruction in tubes containing virus compound mixtures. Observed differences of 75% or more were graded "+", 74-50% as "±", and less than 50% as "-" inhibition.

[6] = system: Rhinovirus Type 8; experiment: Inhibition of cytopathic effect in WI-38 cell culture tubes, rhinovirus type 8; format: cell-based; conditions: Enterovirus, WI-38 cells, read-out: Inhibition grade, Rhinovirus Type 8; for inhibition at 25 µg/mL: 25 μg/ml
Method: as §3, §4, §5

[7] = system: Rhinovirus Type 17; experiment: Inhibition of cytopathic effect in WI-38 cell culture tubes, rhinovirus type 17; format: cell-based; conditions: Enterovirus, WI-38 cells, read-out: Inhibition grade, Rhinovirus Type 17; for inhibition at 25 µg/mL: 25 μg/ml
Method: as §3, §4, §5

[8] = system: Rhinovirus Type 19; experiment: Inhibition of cytopathic effect in WI-38 cell culture tubes, rhinovirus type 19; format: cell-based; conditions: Enterovirus, WI-38 cells, read-out: Inhibition grade, Rhinovirus Type 19; for inhibition at 25 µg/mL: 25 μg/ml
Method: as §3, §4, §5

[9] = system: Rhinovirus Type 21; experiment: Inhibition of cytopathic effect in WI-38 cell culture tubes, rhinovirus type 21; format: cell-based; conditions: Enterovirus, WI-38 cells, read-out: Inhibition grade, Rhinovirus Type 21; for inhibition at 25 µg/mL: 25 μg/ml
Method: as §3, §4, §5

[10] = system: Rhinovirus Type 29; experiment: Inhibition of cytopathic effect in WI-38 cell culture tubes, rhinovirus type 29; format: cell-based; conditions: Enterovirus, WI-38 cells, read-out: Inhibition grade, Rhinovirus Type 29; for inhibition at 25 µg/mL: 25 μg/ml
Method: as §3, §4, §5

[11] = system: Rhinovirus Type 39; experiment: Inhibition of cytopathic effect in WI-38 cell culture tubes, rhinovirus type 39; format: cell-based; conditions: Enterovirus, WI-38 cells, read-out: Inhibition grade, Rhinovirus Type 39; for inhibition at 25 µg/mL: 25 μg/ml
Method: as §3, §4, §5

[12] = system: Rhinovirus Type 56; experiment: Inhibition of cytopathic effect in WI-38 cell culture tubes, rhinovirus type 56; format: cell-based; conditions: Enterovirus, WI-38 cells, read-out: Inhibition grade, Rhinovirus Type 56; for inhibition at 25 µg/mL: 25 μg/ml
Method: as §3, §4, §5

[13] = system: Rhinovirus Type 58; experiment: Inhibition of cytopathic effect in WI-38 cell culture tubes, rhinovirus type 58; format: cell-based; conditions: Enterovirus, WI-38 cells, read-out: Inhibition grade, Rhinovirus Type 58; for inhibition at 25 µg/mL: 25 μg/ml
Method: as §3, §4, §5

[14] = system: Rhinovirus Type 59; experiment: Inhibition of cytopathic effect in WI-38 cell culture tubes, rhinovirus type 59; format: cell-based; conditions: Enterovirus, WI-38 cells, read-out: Inhibition grade, Rhinovirus Type 59; for inhibition at 25 µg/mL: 25 μg/ml
Method: as §3, §4, §5

[15] = system: Rhinovirus Type 64; experiment: Inhibition of cytopathic effect in WI-38 cell culture tubes, rhinovirus type 64; format: cell-based; conditions: Enterovirus, WI-38 cells, read-out: Inhibition grade, Rhinovirus Type 64; for inhibition at 25 µg/mL: 25 μg/ml
Method: as §3, §4, §5

[16] = system: Rhinovirus Type 68; experiment: Inhibition of cytopathic effect in WI-38 cell culture tubes, rhinovirus type 68; format: cell-based; conditions: Enterovirus, WI-38 cells, read-out: Inhibition grade, Rhinovirus Type 68; for inhibition at 25 µg/mL: 25 μg/ml
Method: as §3, §4, §5

[17] = system: Rhinovirus Type 75; experiment: Inhibition of cytopathic effect in WI-38 cell culture tubes, rhinovirus type 75; format: cell-based; conditions: Enterovirus, WI-38 cells, read-out: Inhibition grade, Rhinovirus Type 75; for inhibition at 25 µg/mL: 25 μg/ml
Method: as §3, §4, §5

[18] = system: Rhinovirus Type 81; experiment: Inhibition of cytopathic effect in WI-38 cell culture tubes, rhinovirus type 81; format: cell-based; conditions: Enterovirus, WI-38 cells, read-out: Inhibition grade, Rhinovirus Type 81; for inhibition at 25 µg/mL: 25 μg/ml
Method: as §3, §4, §5

[19] = system: rhinovirus type 8 (RV-8); experiment: Tissue culture testing, rhinovirus type 8 in HeLa cells; format: cell-based; conditions: Enterovirus, 48 and 72 hours, NA = not active at the standard test conditions, read-out: RV-8: lowest concentration of the compound necessary to cause a 50 percent reduction in cytopathic effect
Method: as §1, §2

With `CCS(=O)(=O)c1ccc(Oc2ccc(Cl)c(Cl)c2)nc1` [Example 47, 2-(3,4-dichlorophenoxy)-5-(ethylsulfonyl)pyridine] the MCC [1] was greater than 50 µg/mL, the EC50 [2] was 2.5 µg/mL (≈ 7.53 µM) and the EC50 [3] was no more than 0.312 µg/mL. For the same compound, the “Single Oral Dose X^2 (chi-square, deaths vs virus control)” value [4] was 25.587, the inhibition at 25 µg/mL [5] was 50 to 74% and the inhibition at 25 µg/mL [6] was less than 50%. It also gave an inhibition at 25 µg/mL [7] of no less than 75%, an inhibition at 25 µg/mL [8] of no less than 75% and an inhibition at 25 µg/mL [9] of no less than 75%. For the same compound, the inhibition at 25 µg/mL [10] was no less than 75%, the inhibition at 25 µg/mL [11] was 50 to 74% and the inhibition at 25 µg/mL [12] was no less than 75%. For the same compound, the inhibition at 25 µg/mL [13] was no less than 75%, the inhibition at 25 µg/mL [14] was 50 to 74% and the inhibition at 25 µg/mL [15] was no less than 75%. The inhibition at 25 µg/mL [16] was no less than 75%, the inhibition at 25 µg/mL [17] was less than 50% and the inhibition at 25 µg/mL [18] was no less than 75%.

Work on `CCS(=O)(=O)c1ccc(Oc2ccc(Cl)cc2)nc1` [Example 42, 2-(4-chlorophenoxy)-5-(ethylsulfonyl)pyridine] yielded an MCC [1] of no less than 50 µg/mL, an EC50 [2] of 3.12 µg/mL (≈ 10.5 µM) and an EC50 [19] of roughly 50 µg/mL (≈ 168 µM). The EC50 [3] was no more than 3.12 µg/mL, the “Single Oral Dose X^2 (chi-square, deaths vs virus control)” value [4] was 46.453 and the inhibition at 12.5 µg/mL ([5]; 12.5 μg/ml) was no less than 75%. The inhibition at 12.5 µg/mL ([6]; 12.5 μg/ml) was less than 50%, the inhibition at 12.5 µg/mL ([7]; 12.5 μg/ml) was no less than 75% and the inhibition at 12.5 µg/mL ([8]; 12.5 μg/ml) was no less than 75%. For the same compound, the inhibition at 12.5 µg/mL ([9]; 12.5 μg/ml) was 50 to 74%, the inhibition at 12.5 µg/mL ([10]; 12.5 μg/ml) was no less than 75% and the inhibition at 12.5 µg/mL ([11]; 12.5 μg/ml) was less than 50%. It also gave an inhibition at 12.5 µg/mL ([12]; 12.5 μg/ml) of 50 to 74%, an inhibition at 12.5 µg/mL ([13]; 12.5 μg/ml) of no less than 75% and an inhibition at 12.5 µg/mL ([14]; 12.5 μg/ml) of no less than 75%. The inhibition at 12.5 µg/mL ([15]; 12.5 μg/ml) was no less than 75%, the inhibition at 12.5 µg/mL ([16]; 12.5 μg/ml) was no less than 75% and the inhibition at 12.5 µg/mL ([17]; 12.5 μg/ml) was 50 to 74%. It also gave an inhibition at 12.5 µg/mL ([18]; 12.5 μg/ml) of no less than 75%.

For `CS(=O)(=O)c1ccc(Oc2ccc(C(=O)c3ccccc3)cc2)nc1` [Example 31, (4-((5-(methylsulfonyl)-2-pyridinyl)oxy)phenyl)phenylmethanone], the MCC [1] was greater than 100 µg/mL, the EC50 [2] was 0.125 µg/mL (≈ 0.354 µM) and the EC50 [19] was 6.25 µg/mL (≈ 17.7 µM). The EC50 [3] was 2.5 µg/mL (≈ 7.07 µM), the “Single Oral Dose X^2 (chi-square, deaths vs virus control)” value [4] was 19.383 and the inhibition at 25 µg/mL [5] was 50 to 74%. It also gave an inhibition at 25 µg/mL [6] of less than 50%, an inhibition at 25 µg/mL [7] of no less than 75% and an inhibition at 25 µg/mL [8] of no less than 75%. It also gave an inhibition at 25 µg/mL [9] of 50 to 74%, an inhibition at 25 µg/mL [10] of no less than 75% and an inhibition at 25 µg/mL [11] of less than 50%. For the same compound, the inhibition at 25 µg/mL [12] was no less than 75%, the inhibition at 25 µg/mL [13] was no less than 75% and the inhibition at 25 µg/mL [14] was no less than 75%. It also gave an inhibition at 25 µg/mL [15] of 50 to 74%, an inhibition at 25 µg/mL [16] of no less than 75% and an inhibition at 25 µg/mL [17] of less than 50%. For the same compound, the inhibition at 25 µg/mL [18] was no less than 75%.

Work on `CCS(=O)(=O)c1ccc(Oc2ccc(C(=O)c3ccccc3)cc2)nc1` [Example 43, (4-((5-(ethylsulfonyl)-2-pyridinyl)oxy)phenyl)phenylmethanone] yielded an MCC [1] of 25 µg/mL, an EC50 [2] of less than 3.12 µg/mL and an EC50 [19] of 25 µg/mL (≈ 68 µM). The EC50 [3] was 6.25 µg/mL (≈ 17 µM), the “Single Oral Dose X^2 (chi-square, deaths vs virus control)” value [4] was 45.207 and the inhibition at 3 µg/mL ([5]; 3.0 μg/ml) was less than 50%. For the same compound, the inhibition at 3 µg/mL ([6]; 3.0 μg/ml) was less than 50%, the inhibition at 3 µg/mL ([7]; 3.0 μg/ml) was no less than 75% and the inhibition at 3 µg/mL ([8]; 3.0 μg/ml) was less than 50%. The inhibition at 3 µg/mL ([9]; 3.0 μg/ml) was less than 50%, the inhibition at 3 µg/mL ([10]; 3.0 μg/ml) was no less than 75% and the inhibition at 3 µg/mL ([11]; 3.0 μg/ml) was less than 50%. It also gave an inhibition at 3 µg/mL ([12]; 3.0 μg/ml) of less than 50%, an inhibition at 3 µg/mL ([13]; 3.0 μg/ml) of less than 50% and an inhibition at 3 µg/mL ([14]; 3.0 μg/ml) of less than 50%. For the same compound, the inhibition at 3 µg/mL ([15]; 3.0 μg/ml) was less than 50%, the inhibition at 3 µg/mL ([16]; 3.0 μg/ml) was 50 to 74% and the inhibition at 3 µg/mL ([17]; 3.0 μg/ml) was less than 50%. The inhibition at 3 µg/mL ([18]; 3.0 μg/ml) was no less than 75%.
